Details of series [1]: method as in PMID 15593345. To be noted: in vitro; cited from earlier work.
Series [2] relates to C. albicans cell-free extract. The format is in vitro ADME, Candida albicans. Conditions: conjugate 150 µM, 30 °C, 0, 30, 120 min. The protocol:
(§1) Conjugates 24a–d, containing the TML system, were tested for susceptibility to enzymatic cleavage in the model system with pig liver esterase and in cell-free extract prepared from C. albicans cells. Conjugate 35 containing the o-dithiobenzylcarbamoyl linker was tested in the model system with glutathione and in C. albicans cell-free extract.
C. albicans cells were harvested from the culture in YPD medium in the logarithmic phase of growth and washed with PBS, pH 7.4. Then, cells were suspended in a minimal amount of PBS to an optical density OD660 ≈ 1.5. A sample of 1.5 mL of the cell suspension was put into the Lysing Matrix D, 2 mL tubes containing 1.4 mm ceramic spheres (MP Biomedicals). The tubes were vortexed 5 times for 2 min intervals, with 2 min breaks for cooling in the ice/water bath. Finally, the mixtures were centrifuged (10,000× g, 4 °C, 20 min), and the supernatant was pushed through the syringe filter, 0.22 μm pore size, to remove unbroken cells. The thus-obtained cell-free extract was kept at 4 °C and used no later than 5 h after preparation.
(§2) Analysis of cleavage of the conjugates was performed in two experimental systems: (A) model system, in the presence of pig liver esterase or glutathione, reduced; (B) in C. albicans cell-free extract.
A given conjugate was dissolved in 4 mL of C. albicans cell-free extract to the initial concentration of 150 µM. Mixtures were incubated at 30 °C. Samples of 1 mL were collected at zero time, after 30 min, and after 120 min. The collected samples were immediately de-proteinized by centrifugation (4 °C, 5000× g, 10 min) in Amicon® Ultra-4 Centrifugal Filter Units, 3 kDa cutoff limit. Samples of 50 μL were collected from the filtrates and subjected to HPLC-MS analysis.
(§3) The HPLC-MS system consisted of a liquid chromatograph, a degasser, a binary pomp, an auto-sampler, and a column oven, which was combined with an MS detector with an electrospray source (AJS ESI) and quadrupole analyzer (1260 Infinity II and 6470 Triple Quad LC/MS, Agilent Technologies, Waldbronn, Germany). The ChemStation software was used to control the LC-MS system and for data processing.
Chromatographic separations were performed on an Eclipse XDB-C18 column (150 mm × 4.6 mm, 5 μm). For the separation, a gradient of mobile phase A (H2O + 0.01% HCOOH) and mobile phase B (100% methanol) was used. The gradient profile was set as follows: 0 min—95% effluent A, 8 min—70% effluent A, 11 min—50% effluent A, 12 min—95% effluent A, 17 min—95% effluent A. The flow rate was 1 mL min^−1, the column temperature was 25 °C, and the injection volume was 20 μL.
The electrospray source operated in a negative mode. The data were collected in a MS scanning mode (MS2 SCAN) with the range 150–700 (m/z).

A further series deals with Candida spp. The experiment in a line: Antifungal in vitro activity, summary statements over the Candida strains tested. The format is cell-based. The protocol:
The antifungal in vitro activity of conjugates 24a–d and 35 was determined by the serial two-fold dilution method, using the 96-well microtiter plates, in two growth media, RPMI-1640 and YNB-AS, against seven yeast species from the Candida genus. The MIC50 and MIC90 values, i.e., concentrations at which cell growth was inhibited in 50% and 90%, respectively, were measured and compared to those of the intact cispentacin. The concentration values presented in Table 1 and Table 2 are expressed in mM units to allow the comparison of the compounds’ effectiveness at the molecular level. For data expressed in μg mL^−1 units, such comparison is not possible, since the molecular masses of conjugates (≈1755–2114 D range) are 14–16-fold higher than that of cispentacin (128.3 D).
Susceptibility testing was performed in two growth media: (a) RPMI-1640 w/o sodium bicarbonate, with L-glutamine + 2% glucose + 3.45% MOPS, pH adjusted to 7.0; (b) YNB-AS—Yeast Nitrogen Base w/o amino acids (contains ammonium sulfate 5 g L^−1) + 2% glucose. The in vitro growth inhibitory activity of antifungals was quantified by determination of MIC50 and MIC90 values by the serial two-fold dilution method, using the 96-well microtiter plates. Serial dilutions of cispentacin and its conjugates were prepared in the 4–0.015 mM range.
Conditions of the RPMI-1640-based assay were the same as outlined in the CLSI recommendations except for the end-point readout that was done by spectrophotometric determination of cell density at 660 nm. Turbidity in individual wells was measured with a microplate reader (Victor^3; Perkin Elmer). The 96-well microtiter plates were also used for the determination of in vitro growth inhibitory activity in YNB-AS medium. Individual wells were inoculated with 5 × 10^3 Candida cells mL^−1 from the overnight culture in YPD medium. The plates were incubated at 37 °C for 24 h, and then, turbidity was measured with a microplate reader at 660 nm, as described above for the RPMI-1640-based assay.
Values of MIC50 and MIC90 were read from the graphs of A660 vs. drug concentration and corresponded to the interpolated values of drug concentration at which A660 was 50% or 10% of that measured for the drug-free control.

Series [3] is described as follows: HPLC-MS analysis of conjugate cleavage, model system with glutathione. The format is in vitro ADME. Conditions: reduced, conjugate 150 µM, 30 °C, 0, 30, 120 min. The protocol: as §1, §2
Mixtures containing a given conjugate at the initial concentration of 150 µM and pig liver esterase, 5 mg mL^−1 or 10 mM glutathione, reduced, in a total volume of 200 μL were incubated at 30 °C. Samples of 50 μL were collected at zero time, after 30 min, and after 120 min and subjected to HPLC-MS analysis.
as §3
Chromatographic separations were performed on an Eclipse XDB-C18 column (150 mm × 4.6 mm, 5 μm). […]

“Also recorded” adds a separate entry of the source.

Consider 2 compounds from paper PMC8465315, “Molecular Umbrella as a Nanocarrier for Antifungals” (Molecules, 2021).

In the case of `C=C1C[C@H](N)[C@H](C(=O)O)C1` [BAY 10-8888], the “metabolism by liver microsomes” value in series [1] is “not metabolized”.

Regarding `C[C@H](CCC(=O)NCCCCN(CCCNC(=O)CC[C@@H](C)[C@H]1CC[C@H]2[C@@H]3[C@H](OS(=O)(=O)O)C[C@@H]4C[C@H](OS(=O)(=O)O)CC[C@]4(C)[C@H]3C[C@H](OS(=O)(=O)O)[C@]12C)C(=O)CCSSc1ccccc1COC(=O)N[C@H]1CCC[C@H]1C(=O)O)[C@H]1CC[C@H]2[C@@H]3[C@H](OS(=O)(=O)O)C[C@@H]4C[C@H](OS(=O)(=O)O)CC[C@]4(C)[C@H]3C[C@H](OS(=O)(=O)O)[C@]12C` [compound 35], the “cleavage / release of cispentacin or its derivative (HPLC-MS)” value in series [2] is listed as “Neither cispentacin nor the m/z 145.1/145.2 compound was found”. Moreover, the antifungal activity entry was “devoid of antifungal activity” with Candida spp. (RPMI-1640 medium); “inactive in both media” with Candida spp. (both growth media (RPMI-1640 and YNB-AS)). In addition, the “cleavage / release of cispentacin (HPLC-MS)” value in series [3] is listed as “found in the chromatogram of post-reaction mixture; also recorded: cleavage was observed”.
